Reference: patent publication US12138252B2, “Multikinase inhibitors of VEGF and TGF beta and uses thereof” (AIVIVA BIOPHARMA, INC., priority 2017, dated 2024)

What was measured:
rabbit ear wound = test: Histopathology of rabbit ear wound (neovascularization, fibrosis, re-epithelialization); format: in vivo, New Zealand white rabbits; set-up: key to Total Score: aggregated total of severity grades for microscopic findings; key to Neovascularization / Re-epithelialization: five-step severity grade (minimal, mild, moderate, marked, severe); details: intradermal 1%; for average total score of test wounds lower than untreated wounds by: difference to untreated control; for Total Score / Fibrosis/Collagen / Neovascularization / Re-epithelialization: treated mean, Day 43; for Total Score: aggregation of microscopic findings; for Fibrosis/Collagen / Neovascularization / Re-epithelialization: histology severity grade; for angiogenesis / neovascularization compared with untreated wounds (words) / fibrosis compared with untreated wounds (words): histopathology; for scar formation compared with control sites: overall
Description: (§1) The objective of this study was to examine the effect of test compounds on wound healing and TGF beta expression after dermal injury in a rabbit ear hypertrophic scar model.
(§2) In New Zealand white rabbits, maintained under a surgical plane of anesthesia, trauma stimulation of the skin on the ventral surface of both ears is initiated on Day 1. Trauma sites are evaluated on Days 8, 15, 22, 29, 36, and 43. On days 15 and 29, each site is dosed with test compounds (e.g., 1% w/w, 100 μl) by intradermal or intralesional injections.
At necropsy, each treatment site was harvested and preserved for hematoxylin and […] and Mason's trichrome stainings. Each lesion was examined histologically and graded for neovascularization, fibrosis and re-epithelialization using a five-step/severity grading system (minimal, mild, moderate, marked, and severe). The average total score is an aggregation of these microscopic findings relating to an inflammatory response.

TGFb1 mRNA = TGFb1 mRNA expression (qPCR) in skin of mice after LL-37 challenge; format: in vivo; details: LL37 induced, single intradermal injection 1.6 mg, FIG. 1
Description: (§3) In our study, mice were injected subcutaneously with 40 μL of LL-37 (3.3 mg/mL) to induce inflammatory reactions. Immediately following the LL-37 injection, axitinib, nintedanib, and lenvatinib were individually administered as a single intradermal injection (1.6 mg). LL-37 injection was repeated every 12 hours for a total of 4 injections. Endotoxin-free water and dexamethasone (3 mg/kg by intraperitoneal injection, twice), respectively, were used as negative and positive control groups.
(§4) Mice were then anaesthetized, and tissue samples of lesion sites were excised and fixed for H&E stainings and immunohistochemical analysis. Markers for inflammation (CD4 and CD8) were determined using specific antibodies. TGF beta levels are measured by mRNA expression using qPCR.

[1] = system: LL37-induced inflammation; test: LL37-induced dermal inflammation model in mice, histopathology and CD4/CD8 immunostaining; format: in vivo; details: intradermal LL37 induction, single intradermal injection 1.6 mg, FIG. 2
Description: as §3
At 48 hours after the initial LL-37 injection, the dorsal skin was photographed, and the severity of skin lesions were scored for redness and measured for areas of involvement.
as §4
The tissue samples were analyzed for inflammation characteristics. Histopathology endpoints included inflammation, and CD4+ and CD8+ T-lymphocyte immunostaining. For inflammation scores, tissues were examined histologically and scored for inflammatory cell infiltrate.

TGF-beta 1 = test: Dermal TGFb1 levels (ELISA) after linear incisional wound in minipigs; format: in vivo, Gottingen Minipigs; details: minipig incisional wound, approximately 16 mg intradermal once, biopsies days 4, 7, 9, ELISA, FIG. 5
Description: The purpose of this study was to evaluate the topical effects of axitinib, nintedanib, sorafenib and lenvatinib when administered via intradermal injection to the dorsal skin along linear incisions of minipigs. Linear incisional wound was made to elicit inflammatory and wound healing process in the skin. After dosing, animals were observed postdose for 9 days to assess the levels of TGFb1 expressions in the skin.
Three male Gottingen Minipigs® dosed once via intradermal injection along the edges of each of the linear incision wound sites for each animal (wounds on the dorsum, perpendicular to the spine, approximately 3 cm in length and 3 cm distance from the spine). Each incisional wound received approximately 16 mg of the test compound intradermally once along both sides of the linear wound.
On days of 4, 7, and 9 post-dosing, one 4 mm dermal punch biopsy was collected for each incisional wound and processed for TGF-beta 1 analysis with ELISA, using a commercial kit (e.g., the kit from Thermo Fisher or other vendors).

TGF beta1 mRNA = TGF beta1 mRNA expression (qRT-PCR) in rabbit ear hypertrophic scar model; format: in vivo, New Zealand white rabbits; details: 1% w/w 100 μl intradermal on days 15 and 29, Day 43, FIG. 6
Description: as §1, §2
Animals are euthanized on Day 43, and the trauma sites are harvested and frozen for TGF beta analysis using quantitative RT-PCR (qRT-PCR) (e.g., A. K. Johnson et al., Dev. Comp. Immunol., 2006; 30(5): 473-84). TGF beta1 mRNA expression levels in treated trauma samples are compared to the expression level in the untreated trauma sample.

SMILES: CNC(=O)c1ccccc1Sc1ccc2c(/C=C/c3ccccn3)n[nH]c2c1 [axitinib]
- average total score of test wounds lower than untreated wounds by (rabbit ear wound): 1.4
- Total Score (rabbit ear wound): 4.6
- Fibrosis/Collagen (rabbit ear wound): 3.3
- Neovascularization (rabbit ear wound): 1
- Re-epithelialization (rabbit ear wound): 0.3

SMILES: COc1cc2nccc(Oc3ccc(NC(=O)NC4CC4)c(Cl)c3)c2cc1C(N)=O [lenvatinib]
- TGFb1 mRNA expression relative to LL37 alone (without treatment) (TGFb1 mRNA; 48 hours): 79%
- TGFb-1 mRNA expression among all treatment groups (TGFb1 mRNA): lowest TGFb-1 mRNA expression
- inflammation score (inflammatory cell infiltrate) [1]: prominent reductions
- suppression of TGF beta 1 expression in skin (TGF-beta 1): very effective
- mean folds of TGF beta mRNA expression vs untreated wound sample (TGF beta1 mRNA): lower than the expression level in the untreated wound sample

SMILES: COC(=O)c1ccc2c(c1)NC(=O)/C2=C(\Nc1ccc(N(C)C(=O)CN2CCN(C)CC2)cc1)c1ccccc1 [nintedanib]
- inflammation score (inflammatory cell infiltrate) [1]: prominent reductions
- suppression of TGF beta 1 expression in skin (TGF-beta 1): very effective
- mean folds of TGF beta mRNA expression vs untreated wound sample (TGF beta1 mRNA): lower than the expression level in the untreated wound sample
- average total score of test wounds lower than untreated wounds by (rabbit ear wound): 1.5
- angiogenesis / neovascularization compared with untreated wounds (words) (rabbit ear wound): decreased angiogenesis
- fibrosis compared with untreated wounds (words) (rabbit ear wound): decreased angiogenesis and fibrosis
- angiogenesis / neovascularization compared with untreated wounds (words) (rabbit ear wound; listed as Nintedanib): much less neovascularization
- fibrosis compared with untreated wounds (words) (rabbit ear wound; listed as Nintedanib): about the same fibrosis
- scar formation compared with control sites (rabbit ear wound): less scar formation
- Total Score (rabbit ear wound): 4.5
- Fibrosis/Collagen (rabbit ear wound): 3
- Neovascularization (rabbit ear wound): 1
- Re-epithelialization (rabbit ear wound): 0.5

SMILES: CNC(=O)c1cc(Oc2ccc(NC(=O)Nc3ccc(Cl)c(C(F)(F)F)c3)cc2)ccn1 [sorafenib]
- suppression of TGF beta 1 expression in skin (TGF-beta 1): not as effective
- mean folds of TGF beta mRNA expression vs untreated wound sample (TGF beta1 mRNA): lower than the expression level in the untreated wound sample
- angiogenesis / neovascularization compared with untreated wounds (words) (rabbit ear wound): do not show any reduction in angiogenesis
- fibrosis compared with untreated wounds (words) (rabbit ear wound): similar, or increased fibrosis
- angiogenesis / neovascularization compared with untreated wounds (words) (rabbit ear wound; listed as Sorafenib): slightly increased neovascularization
- scar formation compared with control sites (rabbit ear wound): does not appear to have reduced scar formation
- Total Score (rabbit ear wound): 5.8
- Fibrosis/Collagen (rabbit ear wound): 2.5
- Neovascularization (rabbit ear wound): 3
- Re-epithelialization (rabbit ear wound): 0.3
